The text below walks through data of ChEMBL document CHEMBL1130307, “Inhibition of Matrix Metalloproteinases: An examination of the S1 pocket” (Bioorg Med Chem Lett, 1997).

Assay [1] addresses T1, Stromelysin-1 (Homo sapiens, UniProt P08254).
For a further assay, the target named is T2, Matrilysin (Homo sapiens, UniProt P09237).
T2 sequence (P09237 whole entry): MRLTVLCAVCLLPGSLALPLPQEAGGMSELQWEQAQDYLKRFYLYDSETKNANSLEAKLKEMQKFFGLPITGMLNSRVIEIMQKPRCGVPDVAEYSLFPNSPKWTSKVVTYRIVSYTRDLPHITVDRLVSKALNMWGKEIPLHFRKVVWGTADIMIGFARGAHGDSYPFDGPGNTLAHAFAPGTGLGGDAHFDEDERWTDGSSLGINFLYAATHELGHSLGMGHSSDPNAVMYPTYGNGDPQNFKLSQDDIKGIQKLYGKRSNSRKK

Assay [2] has as its target T3, Interstitial collagenase (Homo sapiens, UniProt P03956).
T3 sequence (P03956 whole entry): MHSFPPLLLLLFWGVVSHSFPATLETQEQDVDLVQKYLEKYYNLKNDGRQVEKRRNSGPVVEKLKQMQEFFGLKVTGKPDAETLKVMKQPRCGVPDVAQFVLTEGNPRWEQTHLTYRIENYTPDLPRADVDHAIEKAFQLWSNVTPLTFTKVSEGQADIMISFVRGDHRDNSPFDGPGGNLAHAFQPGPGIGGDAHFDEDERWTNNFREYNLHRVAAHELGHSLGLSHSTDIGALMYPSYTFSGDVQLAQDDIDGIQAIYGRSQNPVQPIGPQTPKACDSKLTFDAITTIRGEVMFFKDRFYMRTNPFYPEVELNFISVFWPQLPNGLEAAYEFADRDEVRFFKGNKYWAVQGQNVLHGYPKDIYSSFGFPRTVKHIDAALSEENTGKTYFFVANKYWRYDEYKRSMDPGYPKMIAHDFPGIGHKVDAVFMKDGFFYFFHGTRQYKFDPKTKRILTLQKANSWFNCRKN

The target in assay [3] is T3, Interstitial collagenase. This is another data set of the same source.
For assay [4], the target named is T1, Stromelysin-1. This is another data set of the same source.

T1 sequence (P08254 whole entry): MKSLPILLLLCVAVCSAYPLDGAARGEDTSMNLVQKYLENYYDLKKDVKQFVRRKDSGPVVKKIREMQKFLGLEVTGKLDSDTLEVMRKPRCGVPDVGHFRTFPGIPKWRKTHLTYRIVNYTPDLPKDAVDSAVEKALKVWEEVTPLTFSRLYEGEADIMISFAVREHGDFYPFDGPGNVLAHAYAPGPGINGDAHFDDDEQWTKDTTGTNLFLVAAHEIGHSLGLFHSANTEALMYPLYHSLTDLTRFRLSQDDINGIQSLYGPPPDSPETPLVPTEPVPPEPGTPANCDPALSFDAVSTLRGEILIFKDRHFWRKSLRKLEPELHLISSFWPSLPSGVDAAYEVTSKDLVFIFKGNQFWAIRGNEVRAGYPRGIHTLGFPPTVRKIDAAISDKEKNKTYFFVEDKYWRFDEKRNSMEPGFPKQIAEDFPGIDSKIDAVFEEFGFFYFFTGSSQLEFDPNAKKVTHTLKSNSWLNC

Regarding `CCCCCCCCCCCCCCCC[C@H](CC(=O)NO)C(=O)N[C@H](C(=O)NC)C(C)(C)C`, the IC50 (in general, the concentration that gives 50% inhibition) against Stromelysin-1 [1] amounted to 90 nM.
As to `CNC(=O)[C@@H](NC(=O)[C@H](CCCCCCCCCCCCCCO)CC(=O)NO)C(C)(C)C`, the IC50 is 50 nM against Stromelysin-1 [1] and 500 nM at Matrilysin.
The matching figures for `CCCCCCCCCCCCC[C@H](CC(=O)NO)C(=O)N[C@H](C(=O)NC)C(C)(C)C`: 60 nM and 2000 nM.
At Interstitial collagenase [2], `CCCCCCCCC[C@H](CC(=O)NO)C(=O)N[C@H](C(=O)NC)C(C)(C)C` yielded an IC50 of 375 nM.
`CCCCCCC[C@H](CC(=O)O)C(=O)N[C@@H](Cc1ccccc1)C(=O)NC` had an IC50 on Interstitial collagenase [3] of 7000 nM.
`CNC(=O)[C@H](Cc1ccccc1)NC(=O)[C@H](CC(C)C)[C@H](CSc1cccs1)C(=O)NO` [BATIMASTAT] yielded an IC50 against Matrilysin of 6 nM.
For the compound `CCCCCCCCCCCCCCCC[C@H](CC(=O)O)C(=O)N[C@@H](Cc1ccccc1)C(=O)NC`, the IC50 on Stromelysin-1 [4] came to 50000 nM.
Consider `CCCCCCCC[C@H](CC(=O)O)C(=O)N[C@H](C(=O)NC)C(C)(C)C`, for which the IC50 stood at 40000 nM at Matrilysin and 30000 nM against Stromelysin-1 [4].
With `CCCCCCCCC[C@H](CC(=O)NO)C(=O)N[C@@H](Cc1ccccc1)C(=O)NC`, the IC50 on Interstitial collagenase [3] came to 500 nM; against Matrilysin, 3000 nM; against Stromelysin-1 [4], 30 nM.
Take `CCCCCCCCC[C@H](CC(=O)O)C(=O)N[C@@H](Cc1ccccc1)C(=O)NC`: the IC50 on Interstitial collagenase [3] was found to be 7000 nM; at Stromelysin-1 [4], 20000 nM.
In turn, `CCCCCCCCCCCCCCCC[C@H](CC(=O)O)C(=O)N[C@H](C(=O)NC)C(C)(C)C` had an IC50 at Stromelysin-1 [1] of 10000 nM.
Consider `CCCCCCCCCCCCCC[C@H](CC(=O)NO)C(=O)N[C@H](C(=O)NC)C(C)(C)C`, for which the IC50 on Stromelysin-1 [1] was determined as 70 nM.
`CCCCCCCCCCCCCCC[C@H](CC(=O)O)C(=O)N[C@H](C(=O)NC)C(C)(C)C`: the IC50 on Stromelysin-1 [4] is 7000 nM.
On the same count and under the same terms, the result for `CCCCCCCC[C@H](CC(=O)O)C(=O)N[C@@H](Cc1ccccc1)C(=O)NC` reads 5000 nM.
The same measure, in the same setting: the result for `CCCCCCCCCCCCC[C@H](CC(=O)O)C(=O)N[C@H](C(=O)NC)C(C)(C)C` reads 2000 nM.
For `CCCCCCCCCCCC[C@H](CC(=O)NO)C(=O)N[C@@H](Cc1ccccc1)C(=O)NC`, the IC50 against Interstitial collagenase [3] amounted to 50000 nM; against Stromelysin-1 [4], 40 nM.
`CCCCCCCC[C@H](CC(=O)NO)C(=O)N[C@@H](Cc1ccccc1)C(=O)NC`: the IC50 at Interstitial collagenase [3] turned out to be 150 nM; against Matrilysin it was 1000 nM; at Stromelysin-1 [4] it was 450 nM.
For `CCCCCC[C@H](CC(=O)NO)C(=O)N[C@@H](Cc1ccccc1)C(=O)NC`, in that order: 20 nM, 2000 nM and 80 nM.
For `CNC(=O)[C@H](Cc1ccccc1)NC(=O)[C@H](CCCc1ccccc1)CC(=O)NO`, in that order: 1000 nM, 10000 nM and 500 nM.
Turning to `CCCCCCCC[C@H](CC(=O)NO)C(=O)N[C@H](C(=O)NC)C(C)(C)C`, the IC50 against Stromelysin-1 [1] is 100 nM; at Matrilysin it was 500 nM.
As to `CCCCCCCCCCCCCC[C@H](CC(=O)NO)C(=O)N[C@@H](Cc1ccccc1)C(=O)NC`, on Stromelysin-1 [4], the IC50 amounted to 80 nM.
The same measure, in the same setting: next, `CCCCCCCCCCCCCCCC[C@H](CC(=O)NO)C(=O)N[C@@H](Cc1ccccc1)C(=O)NC`: 300 nM.
Take `CCCCCC[C@H](CC(=O)O)C(=O)N[C@@H](Cc1ccccc1)C(=O)NC`: the IC50 on Interstitial collagenase [3] is 20000 nM.
For the compound `CCCCCCC[C@H](CC(=O)NO)C(=O)N[C@@H](Cc1ccccc1)C(=O)NC`, the values for the IC50 against Interstitial collagenase [3], at Matrilysin and against Stromelysin-1 [4] were 400 nM, 2000 nM and 40 nM, respectively.
`CCCCCCCCCCCCCC[C@H](CC(=O)O)C(=O)N[C@H](C(=O)NC)C(C)(C)C`: half-maximal inhibition against Stromelysin-1 [4] (IC50) was put at 4000 nM.
In the case of `CCCCCCCCCC[C@H](CC(=O)NO)C(=O)N[C@@H](Cc1ccccc1)C(=O)NC`, the IC50 came out at 20 nM at Interstitial collagenase [3], 2000 nM on Matrilysin and 1000 nM at Stromelysin-1 [4].
